Assay [1] deals with T1, histamine-stimulated adenylate cyclase (Cavia porcellus, UniProt P47747).
T1 construct: by the method developed by Kanof and Greengard; from tissue; host or cells: brain homogenate (guinea pig hippocampus/neocortex, inferred from the cited method)
The experiment in a line: in vitro inhibition of histamine-stimulated adenylate cyclase (ad. cyc H). To be noted: smaller numbers indicate greater potency, read-out: ad cyc H rating (molar concentration required to inhibit by 50% the stimulation of adenylate cyclase observed after treatment with histamine). It counts as biochemical.

Assay [2] deals with T2, specific binding of tritiated mepyramine ([^3 H]-mepyramine) in brain (Rattus norvegicus, UniProt P31390).
T2 construct: rate brain homogenates; from tissue; host or cells: rat brain homogenate
T2 sequence (P31390 whole entry): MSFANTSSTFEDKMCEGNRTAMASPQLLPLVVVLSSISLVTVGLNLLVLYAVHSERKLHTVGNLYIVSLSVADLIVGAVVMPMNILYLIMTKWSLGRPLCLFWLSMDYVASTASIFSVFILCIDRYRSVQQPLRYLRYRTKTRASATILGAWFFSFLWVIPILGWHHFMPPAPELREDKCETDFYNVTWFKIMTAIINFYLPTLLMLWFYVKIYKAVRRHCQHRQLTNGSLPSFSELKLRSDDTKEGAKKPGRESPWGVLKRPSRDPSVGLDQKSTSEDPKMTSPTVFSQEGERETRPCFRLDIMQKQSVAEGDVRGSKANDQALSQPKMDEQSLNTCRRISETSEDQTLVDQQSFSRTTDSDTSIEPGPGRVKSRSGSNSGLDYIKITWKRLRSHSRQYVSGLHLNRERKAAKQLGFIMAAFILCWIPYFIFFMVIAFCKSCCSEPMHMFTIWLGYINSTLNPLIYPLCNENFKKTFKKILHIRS
The experiment in a line: in vitro inhibition of the specific binding of [3H]-mepyramine in brain. The settings on record: brain homogenates, read-out: (^3 H)mepyramine rating (molar concentration required to inhibit by 50% the binding of [^3 H]mepyramine).

Assay [3] concerns the target binding of tritiated quinuclidinyl benzylate ([^3 H]-QNB) in brain. The arrangement: species or system rat. To be noted: in vitro; brain homogenates; read-out: (^3 H)QNB rating (molar concentration required to inhibit by 50% the binding of [^3 H]QNB).

This is an account of results in patent US4517187A, “1,3,4,6,7-11b-Hexahydro-7-phenyl-2H-pyrazino[2,1-a]isoquinolines methods of preparation, and use as antidepressants” (Pennwalt Corporation, priority 1982, dated 1985).

Molecules are shown by their SMILES. Where a name gives a salt, the structure may show the parent alone. Where only a bound is given, the exact number is not on record here.

T1 sequence (P47747 whole entry): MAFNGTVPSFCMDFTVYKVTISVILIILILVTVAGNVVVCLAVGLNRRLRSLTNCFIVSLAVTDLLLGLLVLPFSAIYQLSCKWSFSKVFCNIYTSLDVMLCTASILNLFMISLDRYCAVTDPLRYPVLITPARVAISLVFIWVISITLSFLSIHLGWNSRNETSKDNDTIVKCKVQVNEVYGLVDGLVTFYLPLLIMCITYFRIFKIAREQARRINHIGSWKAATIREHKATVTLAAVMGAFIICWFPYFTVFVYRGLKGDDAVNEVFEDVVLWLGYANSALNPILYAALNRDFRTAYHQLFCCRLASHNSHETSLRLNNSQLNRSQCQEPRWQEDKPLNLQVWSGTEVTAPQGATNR

For `CN1CCN2C[C@@H](c3ccccc3)c3ccccc3[C@@H]2C1` (relative stereo) [Example 1, cis-1,3,4,6,7,11b-Hexahydro-2-methyl-7-phenyl-2H-pyrazino[2,1-a]isoquinoline dihydrochloride], the IC50 in assay [1] came out at 6800 nM; in assay [2], 20 nM; in assay [3], 250 nM.
In the same order, the values of `CN1CCN2C[C@@H](c3ccccc3)c3ccccc3[C@H]2C1` (relative stereo) [Example 2, trans-1,3,4,6,7,11b-Hexahydro-2-methyl-7-phenyl-2H-pyrazino[2,1-a]isoquinoline dihydrochloride] are > 10000 nM, > 1000 nM and 3300 nM.
For `CCN1CCN2C[C@@H](c3ccccc3)c3ccccc3[C@@H]2C1` (relative stereo) [Example 3, cis-1,3,4,6,7,11b-Hexahydro-2-ethyl-7-phenyl-2H-pyrazino[2,1-a]isoquinoline dihydrochloride], the IC50 in assay [1] was > 10000 nM; in assay [2], 340 nM; in assay [3], 1100 nM.
In the same order, the values of `c1ccc([C@@H]2CN3CCNC[C@H]3c3ccccc32)cc1` (relative stereo) [Example 4, cis-1,3,4,6,7,11b-Hexahydro-7-phenyl-2H-pyrazino[2,1-a]isoquinoline dihydrochloride] are > 10000 nM, > 1000 nM and 920 nM.
